Measured values from PubChem BioAssay AID652188 (Johns Hopkins Ion Channel Center, 2013).
Active and inactive are the calls of the source.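 Rule for the calls: active = peak TASK1 channel inhibition over 30% at some tested dose, plus a fitted dose response curve; inactive = no inhibition at any dose, or no curve fitted.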

Legend:
[1] = nonspecific flux block, untransfected cells – cell-based, FluxOR thallium flux, CRC, counter-screen for TASK1 inhibitor project, SAR follow-up (AID 652188); settings: CHO parental cells, FluxOR thallium flux counter-screen; at 30 µM (top of the series)
[2] = test system: CHO parental cells, FluxOR thallium flux counter-screen; experiment: as above

Compound | flux ratio, lower = inhibition [1] | IC50 [2] [nM]
Cc1cccc(C(=O)Nc2cccc(NC(=O)c3cccc(F)c3)c2)c1 | 0.313 (inactive) | 
COc1ccccc1C(=O)Nc1cc(NC(=O)c2cccc(C)c2)ccc1F | 0.306 (inactive) | 
O=C(Nc1cccc(NC(=O)c2cccc(F)c2)c1)c1ccccc1 | 0.326 (inactive) | 
COc1ccccc1C(=O)Nc1cccc(NC(=O)c2cccc(C)c2)c1 | 0.322 (inactive) | 
COc1ccc(F)cc1C(=O)Nc1cccc(NC(=O)c2cccc(C)c2)c1 | 0.311 (inactive) | 
CCOc1ccccc1C(=O)Nc1cccc(NC(=O)c2cccc(C)c2)c1 |  | 1240
COc1cnccc1C(=O)Nc1cccc(NC(=O)c2cccc(C)c2)c1 | 0.339 (inactive) | 
COc1c(F)cccc1C(=O)Nc1cccc(NC(=O)c2cccc(C)c2)c1 | 0.317 (inactive) | 
COc1ccc(CC(=O)NCc2ccccc2-c2ccccc2C(=O)NCc2ccc(F)cc2F)cc1 | 0.295 (inactive) | 
Cc1cccc(C(=O)Nc2cccc(NC(=O)c3cccc(C(F)(F)F)c3)c2)c1 | 0.304 (inactive) | 
Cc1cccc(C(=O)Nc2cccc(NC(=O)c3ccncc3)c2)c1 | 0.32 (inactive) | 
COc1ccccc1C(=O)Nc1cc(NC(=O)c2ccccc2C(C)C)ccc1F | 0.298 (inactive) | 
Cc1cccc(C(=O)Nc2cccc(NC(=O)c3ccccc3)c2)c1 | 0.319 (inactive) | 
CCCC(=O)C1CCN(c2ncnc3c2CN(C(=O)c2ccc(-c4ccccc4)cc2)CC3)CC1 | 0.302 (inactive) | 
Cc1cccc(C(=O)Nc2cccc(NC(=O)c3cccs3)c2)c1 | 0.334 (inactive) | 
O=C(Nc1cccc(NC(=O)c2ccccc2)c1)c1ccccc1 |  | 240
